One experiment relates to HT1080 cells. Kind of experiment: Cellular assay: inhibition of 2-HG production in HT1080 cells (LC-MS, 48 hours). The experiment is classed as cell-based. The settings on record: Homo sapiens, HT-1080, 2-HG in media by LC-MS. Summed up: (§1)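 HT1080 or U87MG cells (5000/well, DMEM + 10% FBS) seeded overnight, then exposed to compound (0.2% DMSO final) for 48 h; medium 2-HG measured by LC-MS. Viability read by CellTiter-Glo luminescence at 72 h.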

A further experiment addresses IDH1 R132H (Homo sapiens, UniProt O75874, R132H). Nature of the experiment: In vitro assay for IDH1 R132H inhibitors (NADPH/aKG, resazurin detection). The experiment is classed as biochemical. Conditions: Table 4B; 0.2 μg/ml IDH1 R132H, 50 minutes at room temperature; read-out: IC50, IDH1 R132H Inhibition. Summed up:
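Reaction ran 50 min at room temperature in Tris pH 7.5 buffer with 150 mM NaCl, 10 mM MgCl2 and 0.03% BSA. Mix concentrations were 0.2 μg/ml mutant enzyme, 8 uM NADPH and 2 mM aKG. Detection added 30 μM resazurin, with resorufin fluorescence (Ex544/Em590) measured 5 min later.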
A general note: The colour change of resazurin is a common sign of viable cells or microbes.

The test system of another experiment is U87MG cells. Kind of experiment: Cellular assay: inhibition of 2-HG production in U87MG cells (LC-MS, 48 hours). It is filed as cell-based. Conditions: Homo sapiens, U-87 MG, 2-HG in media by LC-MS. Put shortly: as §1

As a reminder, the IC50 is the concentration at which inhibition is half-maximal.

Sequence of IDH1 R132H (O75874 whole entry R132H): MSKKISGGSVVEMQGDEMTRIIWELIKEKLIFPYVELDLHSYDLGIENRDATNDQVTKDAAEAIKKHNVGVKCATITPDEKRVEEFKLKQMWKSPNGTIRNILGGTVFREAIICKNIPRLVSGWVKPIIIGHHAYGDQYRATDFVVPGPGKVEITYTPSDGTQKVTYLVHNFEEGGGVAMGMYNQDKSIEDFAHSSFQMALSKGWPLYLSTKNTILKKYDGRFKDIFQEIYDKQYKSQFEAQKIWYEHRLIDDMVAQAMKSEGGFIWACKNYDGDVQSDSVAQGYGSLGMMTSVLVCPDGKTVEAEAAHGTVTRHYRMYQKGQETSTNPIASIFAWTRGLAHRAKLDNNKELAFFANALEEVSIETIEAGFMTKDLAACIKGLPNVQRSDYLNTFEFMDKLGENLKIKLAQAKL

In the case of `Cc1ccccc1C(C(=O)NC1CCC(F)(F)CC1)N(C(=O)Cn1ccnc1C)c1cccc(F)c1` (stereo not drawn) [Compound 330], the IC50 is 250 to 1000 nM in the experiment with HT1080 cells, 100 to 1000 nM at IDH1 R132H and no more than 250 nM in the experiment with U87MG cells.
As to `Cc1ccccc1C(C(=O)NC1CCC(F)(F)CC1)N(C(=O)COc1ccccn1)c1cccc(F)c1` (stereo not drawn) [Compound 331], the results for the IC50 in the experiment on HT1080 cells, at IDH1 R132H and in the experiment on U87MG cells were no more than 250 nM, no more than 100 nM and no more than 250 nM, respectively.
Consider `Cc1ccccc1[C@@H](C(=O)NC1CCCCC1)N(C(=O)[C@H]1CCCCN1C(=O)OC(C)(C)C)c1cccc(F)c1` [Compound 332], for which the IC50 in the experiment with HT1080 cells was in the range of 250 to 1000 nM; on IDH1 R132H, 100 to 1000 nM; in the experiment with U87MG cells it was 1000 to 5000 nM.
Taken in the same sequence, the figures for `Cc1ccccc1C(C(=O)NC1CC2CC2C1)N(C(=O)CNc1ncccc1F)c1cccc(F)c1` (stereo not drawn) [Compound 333] were no more than 250 nM, 100 to 1000 nM and 1000 to 5000 nM.
Taken in the same sequence, the figures for `COC(=O)NCC(=O)N(c1cccc(F)c1)C(C(=O)NC1CCCCC1)c1ccccc1C` (stereo not drawn) [Compound 334] were no more than 250 nM, no more than 100 nM and no more than 250 nM.
Taken in the same sequence, the figures for `COC(=O)N1CCCC[C@@H]1C(=O)N(c1cccc(F)c1)[C@H](C(=O)NC1CCCCC1)c1ccccc1C` [Compound 335] were 250 to 1000 nM, 100 to 1000 nM and 1000 to 5000 nM.
As to `COC(=O)N1CCCC[C@H]1C(=O)N(c1cccc(F)c1)[C@H](C(=O)NC1CCCCC1)c1ccccc1C` [Compound 336], the IC50 in the experiment with HT1080 cells lay in the range of 250 to 1000 nM; at IDH1 R132H, 100 to 1000 nM; in the experiment on U87MG cells, 250 to 1000 nM.
For the compound `Cc1ccccc1[C@@H](C(=O)NC1CCCCC1)N(C(=O)[C@H]1CCCCN1C(=O)OC(C)C)c1cccc(F)c1` [Compound 338], the IC50 is 250 to 1000 nM in the experiment on HT1080 cells, 100 to 1000 nM at IDH1 R132H and 1000 to 5000 nM in the experiment with U87MG cells.
As to `Cc1ccccc1[C@@H](C(=O)NC1CCCCC1)N(C(=O)[C@@H]1CCCCN1C(=O)OC(C)C)c1cccc(F)c1` [Compound 339], the results for the IC50 in the experiment with HT1080 cells, at IDH1 R132H and with U87MG cells were 1000 to 5000 nM, 100 to 1000 nM and 1000 to 5000 nM, respectively.
`Cc1ccccc1[C@@H](C(=O)NC1CCCCC1)N(C(=O)[C@H]1CCCN1C(=O)OC(C)(C)C)c1cccc(F)c1` [Compound 340]: the half-maximal inhibitory concentration (IC50) with HT1080 cells is 1000 to 5000 nM; at IDH1 R132H, 100 to 1000 nM; in the experiment on U87MG cells, 250 to 1000 nM.
The corresponding values for `COC(=O)N(C)CC(=O)N(c1cccc(F)c1)C(C(=O)NC1CCCCC1)c1ccccc1C` (stereo not drawn) [Compound 341] are no more than 250 nM, no more than 100 nM and no more than 250 nM.
The corresponding values for `Cc1ccccc1C(C(=O)NC1CCC(F)(F)CC1)N(C(=O)CNc1ncccc1F)c1cccc(F)c1` (stereo not drawn) [Compound 342] are 250 to 1000 nM, 100 to 1000 nM and 250 to 1000 nM.
The corresponding values for `Cc1ccccc1C(C(=O)NC1CCCCC1)N(C(=O)Cn1ccnc1C(F)(F)F)c1cccc(F)c1` (stereo not drawn) [Compound 344] are 250 to 1000 nM, 100 to 1000 nM and no more than 250 nM.
`CCOC(=O)N1CCCC[C@@H]1C(=O)N(c1cccc(F)c1)[C@H](C(=O)NC1CCCCC1)c1ccccc1C` [Compound 345]: the values for the IC50 in the experiment with HT1080 cells, at IDH1 R132H and in the experiment on U87MG cells were 1000 to 5000 nM, 100 to 1000 nM and 1000 to 5000 nM, respectively.
Take `Cc1ccccc1[C@@H](C(=O)NC1CCCCC1)N(C(=O)[C@H]1CCCCN1S(C)(=O)=O)c1cccc(F)c1` [Compound 346]: the values for the IC50 in the experiment on HT1080 cells, on IDH1 R132H and in the experiment with U87MG cells were 250 to 1000 nM, 100 to 1000 nM and 250 to 1000 nM, respectively.
As for `CCC(=O)N1CCCC[C@@H]1C(=O)N(c1cccc(F)c1)[C@H](C(=O)NC1CCCCC1)c1ccccc1C` [Compound 347], the IC50 in the experiment on HT1080 cells was in the range of 1000 to 5000 nM; at IDH1 R132H it was 100 to 1000 nM; in the experiment with U87MG cells it was 1000 to 5000 nM.
Take `[2H]C1([2H])C([2H])([2H])C([2H])([2H])C([2H])(NC(=O)C(c2ccccc2C)N(C(=O)COc2ccccn2)c2cccc(F)c2)C([2H])([2H])C1([2H])[2H]` (stereo not drawn) [Compound 351]: the IC50 in the experiment on HT1080 cells was no more than 250 nM; at IDH1 R132H, no more than 100 nM; in the experiment with U87MG cells, no more than 250 nM.
In the case of `Cc1ccccc1C(C(=O)NC1CC2CC2C1)N(C(=O)COc1ccccn1)c1cccc(F)c1` (stereo not drawn) [Compound 354], the IC50 with HT1080 cells was in the range of 250 to 1000 nM; on IDH1 R132H, 100 to 1000 nM; in the experiment on U87MG cells it was 250 to 1000 nM.
As for `COC(=O)N1CCC[C@H]1C(=O)N(c1cccc(F)c1)[C@H](C(=O)NC1CCCCC1)c1ccccc1C` [Compound 356], the figures for the IC50 in the experiment on HT1080 cells, at IDH1 R132H and in the experiment with U87MG cells were no more than 250 nM, no more than 100 nM and no more than 250 nM, respectively.
In the case of `COC(=O)NCC(=O)N(c1ccccc1F)C(C(=O)NC1CCCCC1)c1ccccc1C` (stereo not drawn) [Compound 357], the IC50 with HT1080 cells lay in the range of 250 to 1000 nM; on IDH1 R132H, 100 to 1000 nM; with U87MG cells, 250 to 1000 nM.
Turning to `CCOC(=O)N1CCC[C@H]1C(=O)N(c1cccc(F)c1)[C@H](C(=O)NC1CCCCC1)c1ccccc1C` [Compound 359], the IC50 is 250 to 1000 nM in the experiment with HT1080 cells, no more than 100 nM on IDH1 R132H and no more than 250 nM with U87MG cells.
For `[2H]C1([2H])C([2H])([2H])C([2H])([2H])C([2H])(NC(=O)C(c2ccccc2C)N(C(=O)CNc2ncccc2F)c2cccc(F)c2)C([2H])([2H])C1([2H])[2H]` (stereo not drawn) [Compound 361], the IC50 is no more than 250 nM in the experiment on HT1080 cells, no more than 100 nM on IDH1 R132H and no more than 250 nM in the experiment with U87MG cells.
For the compound `Cc1ccccc1[C@@H](C(=O)NC1CCCCC1)N(C(=O)[C@H]1CCCN1S(C)(=O)=O)c1cccc(F)c1` [Compound 363], the IC50 was in the range of 1000 to 5000 nM with HT1080 cells, 100 to 1000 nM on IDH1 R132H and 250 to 1000 nM in the experiment on U87MG cells.
The corresponding values for `CC(=O)N1CCC[C@H]1C(=O)N(c1cccc(F)c1)[C@H](C(=O)NC1CCCCC1)c1ccccc1C` [Compound 370] are 1000 to 5000 nM, 100 to 1000 nM and 250 to 1000 nM.
The corresponding values for `Cc1ccccc1C(C(=O)NC1CCC(F)(F)CC1)N(C(=O)Cn1ccnc1C(F)(F)F)c1cccc(F)c1` (stereo not drawn) [Compound 373] are 250 to 1000 nM, 100 to 1000 nM and 250 to 1000 nM.
On to `COC(=O)NCCC(=O)N(c1cccc(F)c1)C(C(=O)NC1CCCCC1)c1ccccc1C` (stereo not drawn) [Compound 374], for which the IC50 fell in the range of 1000 to 5000 nM in the experiment on HT1080 cells, 100 to 1000 nM at IDH1 R132H and 1000 to 5000 nM in the experiment on U87MG cells.
`Cc1ccccc1C(C(=O)NC1CCC(F)(F)CC1)N(C(=O)CNc1cccnc1F)c1cccc(F)c1` (stereo not drawn) [Compound 378]: the IC50 with HT1080 cells is 250 to 1000 nM; at IDH1 R132H, no more than 100 nM; with U87MG cells, 250 to 1000 nM.
As to `Cc1ccccc1C(C(=O)NC1CC(F)(F)C1)N(C(=O)CNc1ncccc1F)c1cccc(F)c1` (stereo not drawn) [Compound 379], the IC50 with HT1080 cells was in the range of 250 to 1000 nM; on IDH1 R132H, 100 to 1000 nM; with U87MG cells, 250 to 1000 nM.
`Cc1ccccc1C(C(=O)NC1CC(F)(F)C1)N(C(=O)Cn1ccnc1C)c1cccc(F)c1` (stereo not drawn) [Compound 380]: the IC50 was 1000 to 5000 nM in the experiment on HT1080 cells, 100 to 1000 nM at IDH1 R132H and no more than 250 nM with U87MG cells.
For `Cc1ccccc1C(C(=O)NC1CC(F)(F)C1)N(C(=O)CNc1cccnc1F)c1cccc(F)c1` (stereo not drawn) [Compound 381], the IC50 in the experiment with HT1080 cells is no more than 250 nM; on IDH1 R132H it was no more than 100 nM; in the experiment with U87MG cells, no more than 250 nM.
As for `Cc1ccccc1C(C(=O)NC1CCCCC1)N(Cc1cccs1)C(=O)Oc1ccccc1` (stereo not drawn) [Compound 387], the results for the IC50 in the experiment with HT1080 cells, on IDH1 R132H and in the experiment on U87MG cells were 1000 to 5000 nM, 1000 to 10000 nM and greater than 5000 nM, respectively.
Taken in the same sequence, the figures for `Cc1cnccc1NC(=O)N(Cc1cccs1)C(C(=O)NC1CCCCC1)c1ccccc1C` (stereo not drawn) [Compound 389] were 1000 to 5000 nM, 100 to 1000 nM and 1000 to 5000 nM.
